Measured values as given in article PMC6272775, “Three New Pigment Protein Tyrosine Phosphatases Inhibitors from the Insect Parasite Fungus Cordyceps gracilioides: Terreusinone A, Pinophilin C and Cryptosporioptide A” (Molecules, 2015).

Tests used:
Type in all cases: biochemical
[1] = target: T1, PTP1B (Homo sapiens, UniProt P18031); experiment: PTP assay with pNPP as substrate, PTP1B; conditions: GST-ΔPTP1B PTP activity domain, 37 °C, pH 5.5
T1 construct: fusion proteins which only carry the PTP activity domain were expressed in Escherichia coli DH5α; GST (N); made in house; host or cells: Escherichia coli DH5α
T1 sequence (P18031 3-277 limits assumed): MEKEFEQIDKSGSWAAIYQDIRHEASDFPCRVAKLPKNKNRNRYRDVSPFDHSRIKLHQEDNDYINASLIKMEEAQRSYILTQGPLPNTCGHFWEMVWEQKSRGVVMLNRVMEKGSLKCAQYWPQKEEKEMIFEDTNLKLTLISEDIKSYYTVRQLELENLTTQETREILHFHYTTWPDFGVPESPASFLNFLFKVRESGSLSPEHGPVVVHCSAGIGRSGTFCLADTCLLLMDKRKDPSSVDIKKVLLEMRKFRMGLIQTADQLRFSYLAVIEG
Source text: Protein tyrosine phosphatases (PTPs) constitute a large family of signaling enzymes that control the cellular levels of protein tyrosine phosphorylation. Several “classical” PTPs are attractive therapeutic targets, including PTP1B for obesity and Type II diabetes, SHP1, and SHP2 and CDC25B for cancer. GST-ΔPTP1B, GST-ΔSHP2, GST-ΔSHP1, GST-ΔLAR and GST-ΔCDC25B fusion proteins which only carry the PTP activity domain were expressed in Escherichia coli DH5α and affinity purified with glutathione Sepharose (Amersham Biosciences, Piscataway, NJ, USA). p-Nitrophenyl phosphate (pNPP) was used in the enzymatic reactions to determine the intrinsic catalytic activities of the PTPs. All assays using pNPP as the substrate were performed in a buffered reaction medium containing 10 mM of sodium acetate (NaAc), 1 mM of ethylenediaminetetraacetic acid and 1 mM of dithiothreitol at 37 °C, pH 5.5. […] Every experiment was performed in triplicate. The inhibitory activity measurements of PTPs were performed with different concentrations (0, 2.5, 5, 10, 20, 40 µg mL^−1) of inhibitor and 20 µg mL^−1 of PTPs. The reaction mixture was incubated at 37 °C for 15 min and the catalytic activity was detected by monitoring the absorbance at 405 nm immediately after adding 12.5 mM of pNPP.

[2] = target: T2, CDC25B (Homo sapiens, UniProt P30305); experiment: PTP assay with pNPP as substrate, CDC25B; conditions: GST-ΔCDC25B PTP activity domain, 37 °C, pH 5.5
T2 construct: fusion proteins which only carry the PTP activity domain were expressed in Escherichia coli DH5α; GST (N); made in house; host or cells: Escherichia coli DH5α
T2 sequence (P30305 431-538 limits assumed): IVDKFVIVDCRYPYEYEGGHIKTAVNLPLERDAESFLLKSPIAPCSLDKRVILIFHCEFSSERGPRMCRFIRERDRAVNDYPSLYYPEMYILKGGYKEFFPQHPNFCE
Source text: (§1) Protein tyrosine phosphatases (PTPs) constitute a large family of signaling enzymes that control the cellular levels of protein tyrosine phosphorylation. Several “classical” PTPs are attractive therapeutic targets, including PTP1B for obesity and Type II diabetes, SHP1, and SHP2 and CDC25B for cancer. GST-ΔPTP1B, GST-ΔSHP2, GST-ΔSHP1, GST-ΔLAR and GST-ΔCDC25B fusion proteins which only carry the PTP activity domain were expressed in Escherichia coli DH5α and affinity purified with glutathione Sepharose (Amersham Biosciences, Piscataway, NJ, USA). p-Nitrophenyl phosphate (pNPP) was used in the enzymatic reactions to determine the intrinsic catalytic activities of the PTPs. All assays using pNPP as the substrate were performed in a buffered reaction medium containing 10 mM of sodium acetate (NaAc), 1 mM of ethylenediaminetetraacetic acid and 1 mM of dithiothreitol at 37 °C, pH 5.5. Sodium orthovanadate was used as the positive control. Every experiment was performed in triplicate. The inhibitory activity measurements of PTPs were performed with different concentrations (0, 2.5, 5, 10, 20, 40 µg mL^−1) of inhibitor and 20 µg mL^−1 of PTPs. The reaction mixture was incubated at 37 °C for 15 min and the catalytic activity was detected by monitoring the absorbance at 405 nm immediately after adding 12.5 mM of pNPP. IC50 (the concentration of an inhibitor that is required for 50% inhibition of an enzyme) data were derived from the experimental results.

[3] = target: T3, SHP2 (Homo sapiens, UniProt Q06124); experiment: PTP assay with pNPP as substrate, SHP2; conditions: GST-ΔSHP2 PTP activity domain, 37 °C, pH 5.5
T3 construct: fusion proteins which only carry the PTP activity domain were expressed in Escherichia coli DH5α; GST (N); made in house; host or cells: Escherichia coli DH5α
T3 sequence (Q06124 247-517 limits assumed): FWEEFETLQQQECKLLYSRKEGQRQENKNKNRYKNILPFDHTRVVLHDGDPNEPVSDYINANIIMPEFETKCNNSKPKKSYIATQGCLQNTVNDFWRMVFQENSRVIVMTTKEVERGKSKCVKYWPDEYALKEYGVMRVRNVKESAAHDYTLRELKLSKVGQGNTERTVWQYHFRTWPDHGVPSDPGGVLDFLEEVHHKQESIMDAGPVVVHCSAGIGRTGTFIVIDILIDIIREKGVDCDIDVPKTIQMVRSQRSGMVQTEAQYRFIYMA
Source text: as §1

[4] = target: T4, LAR (Homo sapiens, UniProt P10586); experiment: PTP assay with pNPP as substrate, LAR; conditions: GST-ΔLAR PTP activity domain, 37 °C, pH 5.5
T4 construct: fusion proteins which only carry the PTP activity domain were expressed in Escherichia coli DH5α; GST (N); made in house; host or cells: Escherichia coli DH5α
T4 sequence (P10586 1352-1607 limits assumed): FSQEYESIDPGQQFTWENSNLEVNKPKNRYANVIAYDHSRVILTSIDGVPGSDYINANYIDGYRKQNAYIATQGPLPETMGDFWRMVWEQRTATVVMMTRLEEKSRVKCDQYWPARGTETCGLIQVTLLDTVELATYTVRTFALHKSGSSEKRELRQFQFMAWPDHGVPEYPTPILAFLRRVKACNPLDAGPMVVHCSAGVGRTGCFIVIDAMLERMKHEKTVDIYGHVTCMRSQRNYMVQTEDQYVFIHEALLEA
Source text: as §1

[5] = target: T5, SHP1 (Homo sapiens, UniProt P29350); experiment: PTP assay with pNPP as substrate, SHP1; conditions: GST-ΔSHP1 PTP activity domain, 37 °C, pH 5.5
T5 construct: fusion proteins which only carry the PTP activity domain were expressed in Escherichia coli DH5α; GST (N); made in house; host or cells: Escherichia coli DH5α
T5 sequence (P29350 244-515 limits assumed): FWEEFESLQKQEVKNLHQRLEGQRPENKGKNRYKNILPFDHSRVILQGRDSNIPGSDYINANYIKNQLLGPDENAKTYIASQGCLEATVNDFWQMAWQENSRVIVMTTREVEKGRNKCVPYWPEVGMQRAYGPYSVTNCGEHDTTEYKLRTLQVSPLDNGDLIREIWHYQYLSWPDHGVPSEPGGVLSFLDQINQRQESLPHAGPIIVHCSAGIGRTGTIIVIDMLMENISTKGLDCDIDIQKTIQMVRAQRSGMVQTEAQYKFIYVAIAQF
Source text: as §1

| Structure (SMILES) | IC50 [1] [µM] | IC50 [2] [µM] | IC50 [3] [µM] | IC50 [4] [µM] | IC50 [5] [µM] | IC50 Values SHP2 [3] [µg/mL] | IC50 Values SHP1 [5] [µg/mL] |
| --- | --- | --- | --- | --- | --- | --- | --- |
| CC1(O)C2OC(=O)CCC(=O)NC3(Oc4ccc(C(=O)O)c(O)c4C(=O)C13)C2(C)O (single isomer, unassigned; (+)) [Compound 3] | 17.3 | 18 | 13.5 | > 119 | 11.6 | – | – |
| COC(c1cc2c([nH]1)C(=O)c1cc(C(OC)C(C)C)[nH]c1C2=O)C(C)C (centres unmarked) [Compound 1, 2,6-bis(1-methoxy-2-methylpropyl) pyrrolo[2,3-f]indole-4,8(1H,5H)-dione] | 34.9 | 11.4 | > 139 | 29.6 | 15.6 | – | – |
| Cc1cc(O)cc(O)c1C(=O)O[C@]1(C)C(=O)C=C2C=C(/C=C/C(=O)O)OC[C@H]2[C@@H]1O [Compound 2, (E)-3-((7S,8S,8aS)-7-((2,4-dihydroxy-6-methylbenzoyl)oxy)-8-hydroxyl-7-methyl-6-oxo-6,7,8,8a-tetra-hydro-1H-isochromen-3-yl)acrylic acid] | 16.3 | 10.8 | 19.2 | 11.3 | 8.17 | – | – |
| [Na+].[Na+].[Na+].[O]=[V]([O-])([O-])[O-] [Sodium orthovanadate, reference compound] | – | – | – | – | – | 122.2 | 4.3 |
